Some test systems named below: TK-10 renal; LOX IMVI melanoma; NCI-H460 lung; COLO 205 colon; SNB-75 CNS; MCF7 breast; OVCAR-4 ovarian; NCI/ADR-RES ovarian; T-47D breast; EKVX NSCLC.
Holding throughout (experiment): NCI anticancer screen, dose series, 48 h

The text below walks through data of PubChem BioAssay (NCI).

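Protocol summary: plate cells (96-well), add compound at 5 concentrations, incubate 48 h, interpolate endpoints linearly. GI50: concentration for 50% inhibition of growth. The concentration for full growth arrest is given as TGI.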

As to `CS(=O)(=O)NC12CCC(c3ccccc31)c1ccccc12`, the TGI in the assay on TK-10 renal, in the assay on LOX IMVI melanoma, in the assay with NCI-H460 lung, with COLO 205 colon, in the assay on SNB-75 CNS and in the assay on MCF7 breast was more than 100 µM each time. Further, the TGI in the assay on OVCAR-4 ovarian, in the assay on NCI/ADR-RES ovarian, with T-47D breast and in the assay with EKVX NSCLC was more than 100 µM in each case.
Consider `NC(=O)Cc1nc2c(=O)[nH]cnc2n1C1OC(CO)C(O)C1O` (stereo not given), for which the TGI in the assay with TK-10 renal, in the assay with LOX IMVI melanoma, in the assay with NCI-H460 lung, in the assay with COLO 205 colon, in the assay with SNB-75 CNS and in the assay on MCF7 breast was more than 100 µM each time. The TGI in the assay with OVCAR-4 ovarian, with NCI/ADR-RES ovarian, in the assay on T-47D breast and in the assay with EKVX NSCLC was more than 100 µM throughout.
`CCC(CC(C)C)Nc1ccc(NC(CC)CC(C)C)cc1` (stereo not given): the GI50 in the assay with TK-10 renal was 17.7 µM; with LOX IMVI melanoma it was 14.9 µM; with NCI-H460 lung it was 17.5 µM; in the assay on COLO 205 colon, 11 µM; with SNB-75 CNS, 15.4 µM; with MCF7 breast, 15.2 µM. For the same molecule, the GI50 was 13.9 µM with OVCAR-4 ovarian, 17.6 µM in the assay on NCI/ADR-RES ovarian, 12.7 µM in the assay with T-47D breast and 16.7 µM with EKVX NSCLC. In addition, the TGI in the assay with TK-10 renal came out at 32.3 µM; with LOX IMVI melanoma, 35.1 µM; with NCI-H460 lung, 40.9 µM; with COLO 205 colon it was 23 µM; with SNB-75 CNS, 38.2 µM; in the assay with MCF7 breast it was 28.4 µM. In addition, the TGI in the assay with OVCAR-4 ovarian turned out to be 26.8 µM; with NCI/ADR-RES ovarian, 39.8 µM; in the assay on T-47D breast, 26.7 µM; in the assay on EKVX NSCLC it was 37.6 µM.
On to `COc1ccc2nc3n(c2c1)CCc1cc(OC)c(OC)cc1-3`, for which the TGI with TK-10 renal is more than 100 µM; in the assay with LOX IMVI melanoma, more than 100 µM; in the assay with NCI-H460 lung it was more than 100 µM; in the assay with COLO 205 colon it was 90.8 µM; in the assay with SNB-75 CNS, more than 100 µM; with MCF7 breast it was more than 100 µM. Further, the TGI with OVCAR-4 ovarian, with NCI/ADR-RES ovarian, in the assay on T-47D breast and with EKVX NSCLC was more than 100 µM in each case.
`O=C(c1ccco1)N(C(=S)OC12CC3CC(CC(C3)C1)C2)c1ccccc1`: the TGI in the assay with TK-10 renal is more than 100 µM; in the assay with LOX IMVI melanoma, 86.2 µM; in the assay on NCI-H460 lung, more than 100 µM; in the assay with COLO 205 colon, 32.4 µM; in the assay with SNB-75 CNS, more than 100 µM; in the assay with MCF7 breast, 85.3 µM. In addition, the TGI in the assay with OVCAR-4 ovarian was more than 100 µM; in the assay on NCI/ADR-RES ovarian it was more than 100 µM; in the assay on T-47D breast it was more than 100 µM; in the assay on EKVX NSCLC, 50.1 µM.
For the molecule `O=C(/C=C/c1cccs1)c1ccccc1Cl`, the TGI with TK-10 renal turned out to be 32.3 µM; in the assay on LOX IMVI melanoma, 32.9 µM; in the assay on NCI-H460 lung it was 40.8 µM; in the assay with COLO 205 colon, 38.6 µM; in the assay with SNB-75 CNS, 28.9 µM; in the assay on MCF7 breast, 18.2 µM. Moreover, the TGI in the assay on OVCAR-4 ovarian was 26.8 µM; in the assay on NCI/ADR-RES ovarian, 44.9 µM; with T-47D breast it was 22.8 µM; in the assay with EKVX NSCLC, 30.8 µM.
As for `O=c1cc(NCc2ccncc2)[nH]c(=O)[nH]1`, the TGI with TK-10 renal, with LOX IMVI melanoma, in the assay with NCI-H460 lung, in the assay on COLO 205 colon, in the assay on SNB-75 CNS and in the assay on MCF7 breast was more than 100 µM in each case. The TGI with OVCAR-4 ovarian, in the assay on NCI/ADR-RES ovarian, in the assay with T-47D breast and in the assay on EKVX NSCLC was more than 100 µM throughout.
As to `COC(=O)CCCC(=O)NC1=C(NCc2ccccc2)C(=O)c2ccccc2C1=O`, the TGI with TK-10 renal, in the assay with LOX IMVI melanoma, in the assay with NCI-H460 lung, with COLO 205 colon, in the assay with SNB-75 CNS and with MCF7 breast was more than 100 µM throughout. The TGI in the assay with OVCAR-4 ovarian, in the assay on NCI/ADR-RES ovarian, in the assay with T-47D breast and in the assay with EKVX NSCLC was more than 100 µM in each case.
As to `CC(C)OC1OC(CO)C(O)CC1n1cc(F)c(=O)[nH]c1=O` (stereo not given), the TGI with TK-10 renal, in the assay with LOX IMVI melanoma, with NCI-H460 lung, in the assay with COLO 205 colon, with SNB-75 CNS and with MCF7 breast was more than 100 µM throughout. Further, the TGI in the assay on OVCAR-4 ovarian, with NCI/ADR-RES ovarian, with T-47D breast and in the assay with EKVX NSCLC was more than 100 µM in each case.
Regarding `C=C(C)[C@@H]1CC[C@]2(C(=O)O)CC[C@]3(C)[C@H](CCC4[C@@]5(C)CC[C@H](C(=O)/C=C/c6ccc(O)c(O)c6)C(C)(C)[C@@H]5CC[C@]43C)[C@@H]12` (stereo not given in full), the TGI was 39.9 µM in the assay with TK-10 renal; more than 100 µM in the assay on LOX IMVI melanoma; 16.2 µM in the assay on NCI-H460 lung; 13.8 µM in the assay on COLO 205 colon; more than 100 µM with SNB-75 CNS; 14.9 µM in the assay with MCF7 breast. The TGI in the assay with OVCAR-4 ovarian was more than 100 µM; with NCI/ADR-RES ovarian, more than 100 µM; in the assay with T-47D breast, 95.7 µM; with EKVX NSCLC, more than 100 µM.
Regarding `O=C1c2ccccc2-c2[nH]c3cn[nH]c(=O)c3c21`, the TGI in the assay with TK-10 renal, in the assay on LOX IMVI melanoma, with NCI-H460 lung, with COLO 205 colon, in the assay with SNB-75 CNS and with MCF7 breast was more than 100 µM in each case. In addition, the TGI in the assay with OVCAR-4 ovarian, in the assay with NCI/ADR-RES ovarian, in the assay with T-47D breast and with EKVX NSCLC was more than 100 µM each time.
For the molecule `Cc1[nH]c(=O)[nH]c(=S)c1C(=O)Nc1cccc2cc3ccccc3cc12`, the TGI in the assay on TK-10 renal, in the assay with LOX IMVI melanoma, in the assay on NCI-H460 lung, with COLO 205 colon, in the assay with SNB-75 CNS and in the assay with MCF7 breast was more than 100 µM throughout. The TGI in the assay with OVCAR-4 ovarian, in the assay on NCI/ADR-RES ovarian, in the assay on T-47D breast and in the assay with EKVX NSCLC was more than 100 µM each time.
`CN(C)c1ccc(/C=C2\N=C(c3ccccc3)N(c3ccc4c(c3)Sc3cc(N5C(=O)/C(=C/c6ccc(N(C)C)cc6)N=C5c5ccccc5)ccc3N4)C2=O)cc1`: the TGI with TK-10 renal is 31.1 µM; with LOX IMVI melanoma, 40.9 µM; in the assay on NCI-H460 lung it was 62.3 µM; in the assay with COLO 205 colon it was more than 100 µM; with SNB-75 CNS, 27.4 µM; in the assay with MCF7 breast, 32.4 µM. Further, the TGI with OVCAR-4 ovarian was 61 µM; in the assay with NCI/ADR-RES ovarian, 89.2 µM; in the assay with T-47D breast, 48 µM; in the assay on EKVX NSCLC, 74.8 µM.
`CC(C)C1(O)C(=O)N(c2c(F)c(F)c(F)c(F)c2F)C(=S)N1CCSc1ccccc1` (stereo not given): the TGI with TK-10 renal was found to be 27.9 µM; in the assay with LOX IMVI melanoma, 30.1 µM; in the assay on NCI-H460 lung it was 38.4 µM; in the assay with COLO 205 colon, 32.9 µM; in the assay on SNB-75 CNS it was 31.1 µM; in the assay with MCF7 breast it was 31.7 µM. The TGI amounted to 29.1 µM in the assay with OVCAR-4 ovarian, 31 µM in the assay with NCI/ADR-RES ovarian, 33.6 µM with T-47D breast and 33.5 µM with EKVX NSCLC.
On to `CSc1ccc(/C=C2\N=C(c3ccccc3)N(/N=C/c3cc4cc(C)ccc4nc3Cl)C2=O)cc1`, for which the TGI with TK-10 renal came out at 33.5 µM; with LOX IMVI melanoma it was 44.6 µM; in the assay on NCI-H460 lung, 57.7 µM; in the assay on COLO 205 colon, 39.4 µM; with SNB-75 CNS, 49.2 µM; with MCF7 breast, 43.2 µM. Moreover, the TGI was 39.3 µM with OVCAR-4 ovarian, 78.1 µM in the assay on NCI/ADR-RES ovarian, 91 µM in the assay with T-47D breast and more than 100 µM in the assay with EKVX NSCLC.
